Results as given in ChEMBL document CHEMBL4387773, “Identification of potent, selective and orally bioavailable phenyl ((R)-3-phenylpyrrolidin-3-yl)sulfone analogues as RORγt inverse agonists” (Bioorg Med Chem Lett, 2019).
pEC50, pIC50: −log10 of the molar value.

Legend:
Cytochrome P450 3A4 = Cytochrome P450 3A4 (Homo sapiens, UniProt P08684); assay: Inhibition of CYP3A4 (unknown origin); assay type: ADME
[1] = Tmax in Balb/c mouse at 10 mg/kg, po; assay type: ADME, organism-based; conditions: in vivo
Cytochrome P450 2C9 = Cytochrome P450 2C9 (Homo sapiens, UniProt P11712); assay: Inhibition of CYP2C9 (unknown origin); assay type: ADME
[2] = Stability in human liver microsomes assessed as parent compound remaining after 10 mins; assay type: ADME, Microsome; conditions: liver microsomes, read-out: Stability
Cytochrome P450 2C8 = biological target: T1, Cytochrome P450 2C8 (Homo sapiens, UniProt P10632); assay: Inhibition of CYP2C8 (unknown origin); assay type: ADME
T1 sequence (P10632 whole entry): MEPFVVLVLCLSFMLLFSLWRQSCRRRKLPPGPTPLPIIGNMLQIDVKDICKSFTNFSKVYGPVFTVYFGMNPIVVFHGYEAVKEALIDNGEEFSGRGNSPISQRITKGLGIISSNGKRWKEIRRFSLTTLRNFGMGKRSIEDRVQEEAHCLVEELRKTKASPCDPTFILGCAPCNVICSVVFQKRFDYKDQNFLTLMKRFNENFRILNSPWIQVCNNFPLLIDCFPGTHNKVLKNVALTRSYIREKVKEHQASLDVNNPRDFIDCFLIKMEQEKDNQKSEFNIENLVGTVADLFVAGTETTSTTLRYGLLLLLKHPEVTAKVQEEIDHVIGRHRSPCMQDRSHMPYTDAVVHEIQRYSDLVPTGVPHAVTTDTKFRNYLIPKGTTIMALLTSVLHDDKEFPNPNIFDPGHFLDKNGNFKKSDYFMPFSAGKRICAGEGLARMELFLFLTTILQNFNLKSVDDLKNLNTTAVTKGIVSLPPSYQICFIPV

[3] = biological target: T2, Nuclear receptor subfamily 1 group I member 2 (Homo sapiens, UniProt O75469); assay: Transactivation of PXR (unknown origin) expressed in human HepG2 cells; assay type: cell-based
T2 sequence (O75469 whole entry): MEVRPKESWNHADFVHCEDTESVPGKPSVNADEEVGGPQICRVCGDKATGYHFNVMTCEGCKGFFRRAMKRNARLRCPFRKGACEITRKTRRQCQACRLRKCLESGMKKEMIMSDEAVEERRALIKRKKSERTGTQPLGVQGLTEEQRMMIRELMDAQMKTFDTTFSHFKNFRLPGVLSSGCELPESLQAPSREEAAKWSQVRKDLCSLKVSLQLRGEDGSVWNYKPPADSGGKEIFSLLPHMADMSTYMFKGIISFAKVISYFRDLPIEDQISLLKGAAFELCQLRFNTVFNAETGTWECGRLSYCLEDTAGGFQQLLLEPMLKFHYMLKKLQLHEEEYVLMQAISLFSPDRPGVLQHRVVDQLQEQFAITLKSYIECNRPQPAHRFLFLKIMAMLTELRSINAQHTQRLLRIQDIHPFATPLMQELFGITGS

[4] = Half life in human liver microsomes; assay type: ADME, Microsome
[5] = Stability in mouse liver microsomes assessed as parent compound remaining after 10 mins; assay type: ADME, Microsome; conditions: liver microsomes, read-out: Stability
PXR = biological target: T3, PXR (Homo sapiens, UniProt O75469); assay: Transactivation of PXR (unknown origin) expressed in human HepG2 cells assessed as maximum receptor activation response relative to control; assay type: cell-based; conditions: human HepG2 cells that express PXR, read-out: %max
T3 sequence (O75469 whole entry): T2 sequence (O75469 whole entry)

[6] = Permeability in human Caco2 cells; assay type: ADME, cell-based; conditions: Caco-2, read-out: permeability
[7] = Half life in mouse liver microsomes; assay type: ADME, Microsome
[8] = Cmax in Balb/c mouse at 10 mg/kg, po; assay type: ADME, organism-based; set-up: dose 10 mg/kg, route oral; conditions: in vivo
[9] = biological target: T4, Oxysterols receptor LXR-beta (Homo sapiens, UniProt P55055); assay: Transactivation of human GAL4-fused LXRbeta expressed in African green monkey CV1 cells; assay type: cell-based
T4 sequence (P55055 whole entry): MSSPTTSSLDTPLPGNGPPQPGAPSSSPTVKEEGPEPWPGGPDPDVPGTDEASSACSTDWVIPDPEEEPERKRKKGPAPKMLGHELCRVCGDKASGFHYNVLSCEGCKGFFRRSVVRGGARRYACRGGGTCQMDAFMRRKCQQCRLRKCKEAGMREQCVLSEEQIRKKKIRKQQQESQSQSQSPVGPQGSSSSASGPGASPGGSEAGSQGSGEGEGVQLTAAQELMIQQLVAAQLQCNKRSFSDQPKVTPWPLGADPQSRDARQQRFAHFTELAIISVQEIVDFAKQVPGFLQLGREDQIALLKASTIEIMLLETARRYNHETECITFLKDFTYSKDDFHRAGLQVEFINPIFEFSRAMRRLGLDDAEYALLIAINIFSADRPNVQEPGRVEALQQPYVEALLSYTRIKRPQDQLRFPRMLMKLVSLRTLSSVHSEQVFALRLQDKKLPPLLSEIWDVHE

[10] = biological target: T5, Oxysterols receptor LXR-alpha (Homo sapiens, UniProt Q13133); assay: Transactivation of human GAL4-fused LXRalpha expressed in African green monkey CV1 cells; assay type: cell-based
T5 sequence (Q13133 whole entry): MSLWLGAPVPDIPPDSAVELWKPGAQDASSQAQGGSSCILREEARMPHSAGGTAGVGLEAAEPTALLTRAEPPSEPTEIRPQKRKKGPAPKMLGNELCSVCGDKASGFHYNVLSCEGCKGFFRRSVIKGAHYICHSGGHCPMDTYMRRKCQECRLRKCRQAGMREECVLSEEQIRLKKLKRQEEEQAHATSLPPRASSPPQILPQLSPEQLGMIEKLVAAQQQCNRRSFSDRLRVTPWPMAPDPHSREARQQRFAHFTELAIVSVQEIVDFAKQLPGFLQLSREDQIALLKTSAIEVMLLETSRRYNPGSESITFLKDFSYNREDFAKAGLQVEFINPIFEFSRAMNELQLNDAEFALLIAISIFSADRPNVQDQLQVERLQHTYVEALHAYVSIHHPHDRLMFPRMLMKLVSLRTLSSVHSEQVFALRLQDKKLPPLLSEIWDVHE

Cytochrome P450 2C19 = Cytochrome P450 2C19 (Homo sapiens, UniProt P33261); assay: Inhibition of CYP2C19 (unknown origin); assay type: ADME
Cytochrome P450 2D6 = Cytochrome P450 2D6 (Homo sapiens, UniProt P10635); assay: Inhibition of CYP2D6 (unknown origin); assay type: ADME
Sequence of Cytochrome P450 2D6 (P10635 whole entry): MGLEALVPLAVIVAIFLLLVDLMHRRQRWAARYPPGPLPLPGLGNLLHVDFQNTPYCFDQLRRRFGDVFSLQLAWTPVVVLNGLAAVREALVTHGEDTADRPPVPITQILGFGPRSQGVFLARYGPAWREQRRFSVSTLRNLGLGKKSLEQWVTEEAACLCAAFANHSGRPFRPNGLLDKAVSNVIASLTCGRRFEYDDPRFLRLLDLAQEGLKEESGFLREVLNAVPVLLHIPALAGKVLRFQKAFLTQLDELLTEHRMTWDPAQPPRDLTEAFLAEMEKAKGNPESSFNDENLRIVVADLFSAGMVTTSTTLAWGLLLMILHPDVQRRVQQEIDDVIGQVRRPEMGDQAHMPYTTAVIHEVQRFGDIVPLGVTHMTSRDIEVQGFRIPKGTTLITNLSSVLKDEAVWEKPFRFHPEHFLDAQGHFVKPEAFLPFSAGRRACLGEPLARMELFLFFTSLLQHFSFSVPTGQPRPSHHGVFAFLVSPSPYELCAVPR

Sequence of Cytochrome P450 2C9 (P11712 whole entry): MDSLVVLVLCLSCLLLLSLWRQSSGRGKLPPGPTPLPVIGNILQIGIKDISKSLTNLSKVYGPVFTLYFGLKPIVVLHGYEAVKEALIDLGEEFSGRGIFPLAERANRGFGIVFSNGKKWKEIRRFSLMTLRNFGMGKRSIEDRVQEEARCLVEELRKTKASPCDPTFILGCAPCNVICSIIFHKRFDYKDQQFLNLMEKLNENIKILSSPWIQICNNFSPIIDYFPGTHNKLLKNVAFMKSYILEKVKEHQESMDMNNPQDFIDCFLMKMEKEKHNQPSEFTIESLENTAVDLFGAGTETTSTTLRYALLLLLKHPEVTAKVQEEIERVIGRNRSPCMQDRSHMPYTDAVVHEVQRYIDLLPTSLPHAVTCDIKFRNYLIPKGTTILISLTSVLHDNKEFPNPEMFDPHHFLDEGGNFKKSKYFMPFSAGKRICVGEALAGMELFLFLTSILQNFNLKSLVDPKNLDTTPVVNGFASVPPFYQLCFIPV
Sequence of Cytochrome P450 3A4 (P08684 whole entry): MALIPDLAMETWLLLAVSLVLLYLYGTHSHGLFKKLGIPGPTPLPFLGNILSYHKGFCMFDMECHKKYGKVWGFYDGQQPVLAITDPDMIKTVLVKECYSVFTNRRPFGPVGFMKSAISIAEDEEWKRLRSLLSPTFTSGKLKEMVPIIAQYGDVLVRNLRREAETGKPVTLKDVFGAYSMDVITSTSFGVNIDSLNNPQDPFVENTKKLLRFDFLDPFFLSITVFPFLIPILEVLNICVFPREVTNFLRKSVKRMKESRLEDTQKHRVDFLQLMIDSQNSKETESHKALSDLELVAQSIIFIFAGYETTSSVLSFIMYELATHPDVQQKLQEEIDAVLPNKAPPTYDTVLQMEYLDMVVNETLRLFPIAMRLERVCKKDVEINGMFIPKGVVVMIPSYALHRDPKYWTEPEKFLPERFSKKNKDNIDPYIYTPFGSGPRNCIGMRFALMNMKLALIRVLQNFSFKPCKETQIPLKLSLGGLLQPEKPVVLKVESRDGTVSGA
Sequence of Cytochrome P450 2C19 (P33261 whole entry): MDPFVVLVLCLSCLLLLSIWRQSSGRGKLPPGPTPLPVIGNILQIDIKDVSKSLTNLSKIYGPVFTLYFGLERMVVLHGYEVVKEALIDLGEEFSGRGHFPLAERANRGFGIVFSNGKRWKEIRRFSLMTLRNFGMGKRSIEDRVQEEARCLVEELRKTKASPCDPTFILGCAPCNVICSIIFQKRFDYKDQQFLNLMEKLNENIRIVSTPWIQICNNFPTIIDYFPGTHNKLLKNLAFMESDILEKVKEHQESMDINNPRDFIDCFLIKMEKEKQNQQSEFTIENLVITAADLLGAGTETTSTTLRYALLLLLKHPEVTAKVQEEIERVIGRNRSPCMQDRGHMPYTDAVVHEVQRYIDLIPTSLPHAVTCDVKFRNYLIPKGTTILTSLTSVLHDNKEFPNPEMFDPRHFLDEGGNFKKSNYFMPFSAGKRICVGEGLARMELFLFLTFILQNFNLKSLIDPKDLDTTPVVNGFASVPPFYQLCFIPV

pIC50 (Cytochrome P450 3A4) | Tmax [1] | pIC50 (Cytochrome P450 2C9) | remaining at 10 min [2] | pIC50 (Cytochrome P450 2C8) | pEC50 [3] | half-life [4] | remaining at 10 min [5] | Emax (PXR) | Papp [6] | half-life [7] | Cmax [8] | pEC50 [9] | pEC50 [10] | pIC50 (Cytochrome P450 2C19) | pIC50 (Cytochrome P450 2D6) | SMILES
< 5.00 | 1 h | < 5.00 | 100% | < 5.00 | < 4.30 | > 2 h | 73% | 6% | 15 ×10⁻⁶ cm/s | > 2 h | 6.7 µM | < 5.12 | < 5.12 | < 5.00 | < 5.00 | O=C(O)C12CCC(C(=O)N3CC[C@](c4ccc(C(F)(C(F)(F)F)C(F)(F)F)cc4)(S(=O)(=O)c4ccc(F)cc4)C3)(CC1)CC2
< 5.00 | 0.5 h | < 5.00 | 89% | < 5.00 | < 4.30 | > 2 h | 83% | 6% | 15.3 ×10⁻⁶ cm/s | > 2 h | 3.7 µM | < 5.12 | < 5.12 | < 5.00 | < 5.00 | CC[C@]1(C(=O)N2CC[C@](c3ccc(C(F)(C(F)(F)F)C(F)(F)F)cc3)(S(=O)(=O)c3ccc(F)cc3)C2)CC[C@H](C(=O)O)CC1
